# Experimental data as given in patent US10675294B2, “Pharmaceutical composition containing 8 OXO-deoxyguanosine or pharmaceutically acceptable salt thereof as active ingredient for treating corneal disease” (GACHON UNIVERSITY OF INDUSTRY-ACADEMIC COOPERATION …, priority 2016, dated 2020).
# Legend:
# [1] = tested on: neutrophils, macrophages and T cells; experiment: Immunohistochemical staining of inflammatory cells in corneal tissue; format: in vivo, mouse; conditions: 5 mg/ml or 10 mg/ml in the eye twice a day for a week, compared with control
# Method: (§1) Particularly, in order to construct a corneal injury mouse model using ethanol, a filter paper of 6 mm in diameter soaked in 100% ethanol was applied onto the cornea of the right eye of a female BALB/c mouse at 10 weeks of age for 30 seconds, followed by irrigation with PBS (phosphate-buffered saline) for 1 minute. In order to observe the defects of the corneal epithelium surface easily, the lysamine green reagent, which selectively stains the epithelium defect area, was treated on the surface of the damaged corneal epithelium and washed with physiological saline.
# Particularly, the ethanol induced corneal injury mouse model constructed in Example 1 was administered with 8-oxo-dG in the eye at the concentration of 5 mg/ml or 10 mg/ml and the control PBS (phosphate-buffered saline), twice a day for a week. The corneal tissues were extracted and fixed in 10% paraformaldehyde, followed by washing with PBS. The tissues were treated with anti-neutrophil elastase, anti CD3 and anti F4/80 antibodies (Abcam, Cambridge, UK), the markers of neutrophils, T lymphocytes and macrophages. After washing with PBS, the secondary antibody (REAL™ EnVision™ detection system, Dako) was applied thereto. […] The immunostained cells in each section were counted by hand by two skilled examiners and the numbers were averaged.
# TNF-α = experiment: Inflammatory cytokine mRNA expression in corneal tissue by real time PCR; format: in vivo, mouse; conditions: 5 mg/ml or 10 mg/ml in the eye twice a day for a week; compared with control; FIG. 7a
# [2] = tested on: ethanol induced corneal injury mouse model; experiment: Visual and lysamine green staining observation of corneal epithelium surface; format: in vivo; conditions: 5 mg/ml and 10 mg/ml in the eye twice a day for a week; compared with control (PBS); FIG. 3
# Method: as §1
# The 8-oxo-2′-deoxyguanosine compound prepared at the concentrations of 5 mg/ml and 10 mg/ml and the control PBS (phosphate-buffered saline) were applied into the eye of the ethanol induced corneal injury mouse model constructed in Example 1, respectively twice a day for a week, followed by observation with the naked eye and photographs (n=15 in each group).
# IL-6 = experiment: Inflammatory cytokine mRNA expression in corneal tissue by real time PCR; format: in vivo, mouse; conditions: 5 mg/ml or 10 mg/ml in the eye twice a day for a week; three groups incl. PBS; FIG. 7c
# Method: as §1
# (§2) Particularly, the ethanol induced corneal injury mouse model constructed in Example 1 was administered with 8-oxo-dG in the eye at the concentration of 5 mg/ml or 10 mg/ml and the control PBS (phosphate-buffered saline), twice a day for a week. The corneal tissue was extracted and homogenized with a sonicator (Ultrasonic Processor, Cole Parmer Instruments, Vernon Hills, Ill., USA). Then, corneal RNA was extracted by using RNeasy Mini kit (Qiagen, Valencia, Calif., USA). CDNA was synthesized with the same amount of RNA of each corneal sample and real-time PCR (ABI 7500 Real Time PCR System, Applied Biosystems, Carlsbad, Calif., USA) was performed. Taqman Gene Expression Assays were used for real-time PCR. The detailed inflammatory cytokines were as follows. […]
# IL-1β = experiment: as above; format: in vivo, mouse; conditions: 10 mg/ml in the eye twice a day for a week; compared with control; FIG. 7b
# Method: as §1, §2
# [3] = tested on: ethanol induced corneal injury mouse model; experiment: Histological observation (H&E) of corneal tissue; format: in vivo; conditions: 5 mg/ml or 10 mg/ml in the eye twice a day for a week; n=2; FIGS. 5a, 5b
# Method: as §1
# The ethanol induced corneal injury mouse model constructed in Example 1 was administered with 8-oxo-dG in the eye at the concentration of 5 mg/ml or 10 mg/ml and the control PBS (phosphate-buffered saline), twice a day for a week. The corneal tissues were extracted and fixed in 10% paraformaldehyde, followed by washing with PBS. The tissues were embedded in paraffin and the paraffin block was stained with H&E (haematoxylin and eosin), followed by direct observation under the microscope. The stromal thickness was measured by using Image J software.
# Rac protein = conditions: exogenous 8-oxo-dG; previous experiments with animal models; cited from earlier work
# [4] = tested on: ethanol induced corneal injury mouse model; experiment: Clinical index scoring of corneal epithelium damage recovery; format: in vivo
# Method: as §1
# 8-oxo-dG was applied into the eye of the ethanol induced corneal injury mouse model for a week and then the recovery of the corneal epithelium damage was investigated. Particularly, the ethanol induced corneal injury mouse model examined in Experimental Example 1 was injected with Zoletil intramuscularly in order to anesthetize the mouse, followed by lysamine green staining on the cornea. Then, epithelial integrity and clarity of the corneal epithelium and corneal neovascularization were investigated and the results proceeded to clinical grading and scoring by items.
# The corneal clarity was also evaluated and scored step by step. The indexes of the evaluation are as follows (Fantes et al, Arch Ophthalmol 1990).
# In addition, in order to evaluate and score the degree of corneal neovascularization, the cornea was divided into quadrants as shown in FIG. 1. Based on the limbus between the cornea and the sclera, 0.5 points were assigned to each part of the newly formed vessels in the inside, followed by indexing and scoring (total 12 scores) (Li et al, Molecular Vision 2010).
# During the application of 8-oxo-dG into the eye for a week, corneal staining was performed for a week to graphically identify the recovery of the corneal epithelial defects on daily basis.
smiles,measurement,setting,value
"Nc1nc2c([nH]c(=O)n2[C@H]2CC(O)[C@@H](CO)O2)c(=O)[nH]1 (some centres unmarked) [8-oxo-dG, 8-oxo-2′-deoxyguanosine]",number of cells stained with anti-neutrophil elastase (neutrophils),[1]; FIG. 6a,reduced significantly
same,number of cells stained with anti F4/80 (macrophages),[1]; FIG. 6b,reduced significantly
same,number of cells stained with anti CD3 (T cells),[1]; FIG. 6c,not much different
same,expression of TNF-α mRNA,TNF-α,not significantly but slightly reduced
same,"corneal epithelium surface damage, lysamine green staining (after staining)",[2],reduced significantly by the treatment of 8-oxo-dG dose-dependently
same,"corneal epithelium surface damage, naked eye (before staining)",[2],reduced by the treatment of 8-oxo-dG dose-dependently
same,expression of IL-6 mRNA,IL-6,not much different
same,expression of IL-1β mRNA,IL-1β,significantly reduced
same,corneal epithelium tissue condition/thickness (H&E),[3],restored to the normal level
same,effect on Rac protein (GTPase),Rac protein,inactivated Rac protein
same,neovascularization scoring index,"[4]; 5 mg/ml or 10 mg/ml in the eye twice a day for a week, FIG. 4c",reduced in the group treated with 8-oxo-dG to some degree
same,epithelial integrity index score (defect of the corneal epithelium surface),"[4]; 5 mg/ml or 10 mg/ml in the eye twice a day for a week, compared with PBS, FIG. 4a",reduced in the group treated with 8-oxo-dG dose-dependently
same,corneal clarity scoring index,"[4]; 5 mg/ml or 10 mg/ml in the eye twice a day for a week, lower index = improved clarity, FIG. 4b",reduced in the group treated with 8-oxo-dG dose-dependently
same,daily recovery of corneal epithelial defects (corneal staining index score),"[4]; 5 mg/ml or 10 mg/ml in the eye, daily corneal staining for a week, FIG. 4d",significantly reduced in the group treated with 8-oxo-dG dose-dependently
